Data from PubChem BioAssay (NCI).
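Cells were grown in 96-well plates and exposed to each compound for 48 hours at five concentrations; endpoints were interpolated linearly between bracketing concentrations, or set to the highest concentration if not reached. The concentration for full growth arrest is given as TGI.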

Columns and labels:
Assay in all cases: NCI anticancer screen, dose series, 48 h
A549 NSCLC = tested on: A549 NSCLC
ACHN renal = tested on: ACHN renal
CAKI-1 renal = tested on: CAKI-1 renal
CCRF-CEM leukemia = tested on: CCRF-CEM leukemia
COLO 205 colon = tested on: COLO 205 colon
DU-145 prostate = tested on: DU-145 prostate
EKVX NSCLC = tested on: EKVX NSCLC
HCT-15 colon = tested on: HCT-15 colon
HL-60(TB) leukemia = tested on: HL-60(TB) leukemia
HOP-62 NSCLC = tested on: HOP-62 NSCLC
HOP-92 NSCLC = tested on: HOP-92 NSCLC
HS 578T breast = tested on: HS 578T breast
HT29 colon = tested on: HT29 colon
IGROV1 ovarian = tested on: IGROV1 ovarian
K-562 leukemia = tested on: K-562 leukemia
KM12 colon = tested on: KM12 colon
LOX IMVI melanoma = tested on: LOX IMVI melanoma
M14 melanoma = tested on: M14 melanoma
MALME-3M melanoma = tested on: MALME-3M melanoma
MCF7 breast = tested on: MCF7 breast
MDA-MB-231 breast = tested on: MDA-MB-231 breast
MDA-MB-435 = tested on: MDA-MB-435
MDA-N = tested on: MDA-N
MOLT-4 leukemia = tested on: MOLT-4 leukemia
NCI-H226 lung = tested on: NCI-H226 lung
NCI-H23 lung = tested on: NCI-H23 lung
NCI-H460 lung = tested on: NCI-H460 lung
NCI-H522 lung = tested on: NCI-H522 lung
NCI/ADR-RES ovarian = tested on: NCI/ADR-RES ovarian
OVCAR-3 ovarian = tested on: OVCAR-3 ovarian
OVCAR-4 ovarian = tested on: OVCAR-4 ovarian
OVCAR-5 ovarian = tested on: OVCAR-5 ovarian
OVCAR-8 ovarian = tested on: OVCAR-8 ovarian
PC-3 prostate = tested on: PC-3 prostate
RPMI-8226 leukemia = tested on: RPMI-8226 leukemia
RXF 393 renal = tested on: RXF 393 renal
SF-268 CNS = tested on: SF-268 CNS
SF-295 CNS = tested on: SF-295 CNS
SF-539 CNS = tested on: SF-539 CNS
SK-MEL-2 melanoma = tested on: SK-MEL-2 melanoma
SK-MEL-28 melanoma = tested on: SK-MEL-28 melanoma
SK-MEL-5 melanoma = tested on: SK-MEL-5 melanoma
SK-OV-3 ovarian = tested on: SK-OV-3 ovarian
SN12C renal = tested on: SN12C renal
SNB-19 CNS = tested on: SNB-19 CNS
SNB-75 CNS = tested on: SNB-75 CNS
SR leukemia = tested on: SR leukemia
SW-620 colon = tested on: SW-620 colon
TK-10 renal = tested on: TK-10 renal
U251 CNS = tested on: U251 CNS
UACC-257 melanoma = tested on: UACC-257 melanoma
UACC-62 melanoma = tested on: UACC-62 melanoma
UO-31 renal = tested on: UO-31 renal
786-0 renal = tested on: 786-0 renal
A498 renal = tested on: A498 renal
BT-549 breast = tested on: BT-549 breast
HCC-2998 colon = tested on: HCC-2998 colon
HCT-116 colon = tested on: HCT-116 colon

In the case of CN(CC(=O)O)c1ncc2c(n1)-c1ccccc1OC2c1ccccc1 (centres undefined), the TGI (A549 NSCLC) is reported as greater than 100 µM, the TGI (ACHN renal) is reported as greater than 100 µM and the TGI (CAKI-1 renal) is reported as greater than 100 µM. It also gave a TGI (CCRF-CEM leukemia) greater than 100 µM, a TGI (COLO 205 colon) greater than 100 µM and a TGI (DU-145 prostate) greater than 100 µM. The TGI (EKVX NSCLC) was greater than 100 µM, the TGI (HCT-15 colon) was greater than 100 µM and the TGI (HL-60(TB) leukemia) was greater than 100 µM. For the same molecule, the TGI (HOP-62 NSCLC) was greater than 100 µM, the TGI (HOP-92 NSCLC) was greater than 100 µM and the TGI (HS 578T breast) was greater than 100 µM. It also gave a TGI (HT29 colon) greater than 100 µM, a TGI (IGROV1 ovarian) greater than 100 µM and a TGI (K-562 leukemia) greater than 100 µM. The TGI (KM12 colon) was greater than 100 µM, the TGI (LOX IMVI melanoma) was greater than 100 µM and the TGI (M14 melanoma) was greater than 100 µM. It also gave a TGI (MALME-3M melanoma) greater than 100 µM, a TGI (MCF7 breast) greater than 100 µM and a TGI (MDA-MB-231 breast) greater than 100 µM. The TGI (MDA-MB-435) was greater than 100 µM, the TGI (MDA-N) was greater than 100 µM and the TGI (MOLT-4 leukemia) was greater than 100 µM. It also gave a TGI (NCI-H226 lung) greater than 100 µM, a TGI (NCI-H23 lung) greater than 100 µM and a TGI (NCI-H460 lung) greater than 100 µM. It also gave a TGI (NCI-H522 lung) greater than 100 µM, a TGI (NCI/ADR-RES ovarian) greater than 100 µM and a TGI (OVCAR-3 ovarian) greater than 100 µM. The TGI (OVCAR-4 ovarian) was greater than 100 µM, the TGI (OVCAR-5 ovarian) was greater than 100 µM and the TGI (OVCAR-8 ovarian) was greater than 100 µM. The TGI (PC-3 prostate) was greater than 100 µM, the TGI (RPMI-8226 leukemia) was greater than 100 µM and the TGI (RXF 393 renal) was greater than 100 µM. For the same molecule, the TGI (SF-268 CNS) was greater than 100 µM, the TGI (SF-295 CNS) was greater than 100 µM and the TGI (SF-539 CNS) was greater than 100 µM. For the same molecule, the TGI (SK-MEL-2 melanoma) was greater than 100 µM, the TGI (SK-MEL-28 melanoma) was greater than 100 µM and the TGI (SK-MEL-5 melanoma) was greater than 100 µM. For the same molecule, the TGI (SK-OV-3 ovarian) was greater than 100 µM, the TGI (SN12C renal) was greater than 100 µM and the TGI (SNB-19 CNS) was greater than 100 µM. For the same molecule, the TGI (SNB-75 CNS) was greater than 100 µM, the TGI (SR leukemia) was greater than 100 µM and the TGI (SW-620 colon) was greater than 100 µM. The TGI (TK-10 renal) was greater than 100 µM, the TGI (U251 CNS) was greater than 100 µM and the TGI (UACC-257 melanoma) was greater than 100 µM. For the same molecule, the TGI (UACC-62 melanoma) was greater than 100 µM and the TGI (UO-31 renal) was greater than 100 µM.

Work on COC(=O)[C@](NC(=O)OCc1ccccc1)([C@@H](C)Sc1ccc(C)cc1)C(F)(F)F yielded a TGI (786-0 renal) greater than 100 µM, a TGI (A498 renal) greater than 100 µM and a TGI (A549 NSCLC) greater than 100 µM. The TGI (ACHN renal) was greater than 100 µM, the TGI (BT-549 breast) was greater than 100 µM and the TGI (CAKI-1 renal) was greater than 100 µM. For the same molecule, the TGI (CCRF-CEM leukemia) was 50.7 µM, the TGI (COLO 205 colon) was 38.4 µM and the TGI (DU-145 prostate) was greater than 100 µM. It also gave a TGI (EKVX NSCLC) greater than 100 µM, a TGI (HCC-2998 colon) greater than 100 µM and a TGI (HCT-116 colon) greater than 100 µM. The TGI (HCT-15 colon) was greater than 100 µM, the TGI (HL-60(TB) leukemia) was 78.3 µM and the TGI (HOP-62 NSCLC) was greater than 100 µM. The TGI (HS 578T breast) was greater than 100 µM, the TGI (HT29 colon) was greater than 100 µM and the TGI (IGROV1 ovarian) was greater than 100 µM. For the same molecule, the TGI (K-562 leukemia) was greater than 100 µM, the TGI (KM12 colon) was greater than 100 µM and the TGI (LOX IMVI melanoma) was greater than 100 µM. The TGI (M14 melanoma) was greater than 100 µM, the TGI (MALME-3M melanoma) was greater than 100 µM and the TGI (MCF7 breast) was greater than 100 µM. For the same molecule, the TGI (MDA-MB-435) was greater than 100 µM, the TGI (MDA-N) was greater than 100 µM and the TGI (MOLT-4 leukemia) was greater than 100 µM. It also gave a TGI (NCI-H23 lung) of 58.5 µM, a TGI (NCI-H460 lung) greater than 100 µM and a TGI (NCI-H522 lung) greater than 100 µM. For the same molecule, the TGI (NCI/ADR-RES ovarian) was greater than 100 µM, the TGI (OVCAR-3 ovarian) was greater than 100 µM and the TGI (OVCAR-4 ovarian) was greater than 100 µM. It also gave a TGI (OVCAR-5 ovarian) greater than 100 µM, a TGI (OVCAR-8 ovarian) of 60 µM and a TGI (PC-3 prostate) greater than 100 µM. It also gave a TGI (RPMI-8226 leukemia) greater than 100 µM, a TGI (SF-268 CNS) greater than 100 µM and a TGI (SF-295 CNS) greater than 100 µM. For the same molecule, the TGI (SF-539 CNS) was greater than 100 µM, the TGI (SK-MEL-2 melanoma) was greater than 100 µM and the TGI (SK-MEL-28 melanoma) was greater than 100 µM. The TGI (SK-MEL-5 melanoma) was 38.2 µM, the TGI (SK-OV-3 ovarian) was greater than 100 µM and the TGI (SNB-19 CNS) was greater than 100 µM. It also gave a TGI (SR leukemia) greater than 100 µM, a TGI (SW-620 colon) greater than 100 µM and a TGI (U251 CNS) greater than 100 µM. For the same molecule, the TGI (UACC-257 melanoma) was greater than 100 µM, the TGI (UACC-62 melanoma) was greater than 100 µM and the TGI (UO-31 renal) was greater than 100 µM.
